{"source": "paper PMC7984856", "about": "(European journal of medicinal chemistry, 2021)", "origin": "cited, not measured here", "test_system": "catalepsy in rats", "conditions": "previous in vivo behavioral studies, ref [29]", "data": [{"compound": "Fc1ccc(CCCCN2CCN(c3ccccn3)CC2)cc1", "note": "[Compound 2, 1-(4-(4-fluorophenyl)butyl)-4-(pyridin-2-yl)piperazine]", "values": [{"measurement": "propensity to cause catalepsy", "result": "low propensity to cause catalepsy"}]}]}
